In paper PMC10465243, “Identification of sucrose synthase from Micractinium conductrix to favor biocatalytic glycosylation” (Frontiers in Microbiology, 2023):

Molecular target: T1, UGT76G1 (Stevia rebaudiana, UniProt Q6VAB4, S195Q)
T1 construct: codon-optimised gene in pRSFDuet-1 (NdeI/XhoI), co-expressed with a SuSy in E. coli BL21(DE3), crude extract
Experiment: HPLC of RebD and RebM, one-pot coupled with McSuSy S31D, E. coli crude extract
Format: biochemical
Details: sucrose, UDP recycling, potassium phosphate pH 7.2, 40°C; RebD formed in situ as intermediate

T1 sequence (Q6VAB4 whole entry S195Q): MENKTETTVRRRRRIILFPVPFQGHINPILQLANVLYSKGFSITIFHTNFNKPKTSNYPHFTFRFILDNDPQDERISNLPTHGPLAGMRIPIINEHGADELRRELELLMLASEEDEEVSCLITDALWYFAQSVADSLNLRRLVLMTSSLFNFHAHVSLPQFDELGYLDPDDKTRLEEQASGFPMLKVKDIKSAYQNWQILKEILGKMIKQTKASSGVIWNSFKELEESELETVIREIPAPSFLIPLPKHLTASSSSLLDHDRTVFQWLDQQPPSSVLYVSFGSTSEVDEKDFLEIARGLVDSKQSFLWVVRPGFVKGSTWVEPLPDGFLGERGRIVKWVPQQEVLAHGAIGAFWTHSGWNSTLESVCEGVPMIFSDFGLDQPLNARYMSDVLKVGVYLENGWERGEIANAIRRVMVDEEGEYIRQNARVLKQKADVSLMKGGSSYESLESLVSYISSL

`C=C1C[C@@]23CC[C@H]4[C@@](C)(CCC[C@@]4(C)C(=O)O[C@@H]4O[C@H](CO)[C@@H](O)[C@H](O)[C@H]4O[C@@H]4O[C@H](CO)[C@@H](O)[C@H](O)[C@H]4O)[C@@H]2CC[C@]1(O[C@@H]1O[C@H](CO)[C@@H](O)[C@H](O[C@@H]2O[C@H](CO)[C@@H](O)[C@H](O)[C@H]2O)[C@H]1O[C@@H]1O[C@H](CO)[C@@H](O)[C@H](O)[C@H]1O)C3` [RebD] was tested, and the “HPLC of RebD and RebM, one-pot coupled with McSuSy S31D, E. coli crude extract” value was “second glycosylation reaction that RebD was converted into RebM by UGT76G1_S195Q”.
